Test results published in publication PMC12606866, “Phenolic Compounds from Diarthron iranica: Enzymatic and in Silico Insights Into α-Amylase Inhibitory Activity” (Iranian Journal of Pharmaceutical Research : IJPR, 2025).
≈ marks a conversion by molar mass, not a printed value.

Biological target: α-amylase
Experiment: DNS colorimetric alpha-amylase inhibition assay with starch
Type: biochemical

SMILES	IC50
COc1cc([C@H]2OC[C@H]3[C@@H]2CO[C@@H]3c2ccc(O)c(OC)c2)ccc1O [compound 3, 4,4'-dihydroxy-3,3'-dimethoxy-7, 9’:7’, 9-diepoxylignan]	1810 µg/mL (≈ 5050 µM)
COc1cc(O[C@@H]2O[C@H](CO[C@@H]3OC[C@@H](O)[C@H](O)[C@H]3O)[C@@H](O)[C@H](O)[C@H]2O)c2c(=O)cc(-c3ccc(O)cc3)oc2c1 [compound 1, 5-[(β)-D-xylopyranoside-(1'''→6'')-β-D-glucopyranoside] 7-Methoxy apigenin]	1320 µg/mL (≈ 2280 µM)
O=c1cc(-c2ccc(O)c(O)c2)oc2cc(O)cc(O)c12 [luteolin, reference compound]	630 µg/mL (≈ 2200 µM)
COc1cc2cc(Oc3ccc4ccc(=O)oc4c3)c(=O)oc2cc1O [compound 2, 6'-Methoxy-7'-hydroxy-3'-O-7-bicoumarin]	710 µg/mL (≈ 2020 µM)
